Legend:
Assay type in all cases: in vivo
Hordeum murinum = experiment: Pre-emergence herbicidal action, greenhouse, 320 g/ha; conditions: application rate 320 g/ha, Table B14
Text: (§1) Seeds of monocotyledonous and dicotyledonous weed plants and crop plants were placed in plastic or organic planting pots and covered with soil. The compounds of the invention, formulated in the form of wettable powders (WP) or as emulsion concentrates (EC), were then applied to the surface of the covering soil as aqueous suspension or emulsion with addition of 0.5% additive at a water application rate equivalent to […]. After the treatment, the pots were placed in a greenhouse and kept under good growth conditions for the test plants. After about 3 weeks, the effect of the preparations is scored visually in comparison with untreated controls as percentages. For example, 100% activity=the plants have died, 0% activity=like control plants. Tables B1 to B14 below show the effects of selected compounds of the general formula (I) according to Tables I.1 to I.150 on various harmful plants and at an application rate corresponding to 320 g/ha, which were obtained by the experimental procedure mentioned above.

Stellaria media [1] = experiment: as above; conditions: application rate 320 g/ha, scored visually after about 3 weeks vs untreated controls
Text: as §1

Polygonum convolvulus = experiment: as above; conditions: application rate 320 g/ha, scored visually after about 3 weeks vs untreated controls
Text: as §1

Avena fatua = experiment: as above; conditions: application rate 320 g/ha, scored visually after about 3 weeks vs untreated controls
Text: as §1

Setaria viridis [2] = experiment: as above; conditions: application rate 320 g/ha, Table B11
Text: as §1

Amaranthus retroflexus [3] = experiment: as above; conditions: application rate 320 g/ha, scored visually after about 3 weeks vs untreated controls
Text: as §1

Matricaria inodora [4] = experiment: as above; conditions: application rate 320 g/ha, scored visually after about 3 weeks vs untreated controls
Text: as §1

Alopecurus myosuroides = experiment: as above; conditions: application rate 320 g/ha, scored visually after about 3 weeks vs untreated controls
Text: as §1

Abutilon theophrasti [5] = experiment: as above; conditions: application rate 320 g/ha, scored visually after about 3 weeks vs untreated controls
Text: as §1

Viola tricolor [6] = experiment: as above; conditions: application rate 320 g/ha, Table B8
Text: as §1

Pharbitis purpurea = experiment: as above; conditions: application rate 320 g/ha, Table B12
Text: as §1

Digitaria sanguinalis = experiment: as above; conditions: application rate 320 g/ha, Table B9
Text: as §1

Veronica persica = experiment: as above; conditions: application rate 320 g/ha, Table B13
Text: as §1

Setaria viridis [7] = experiment: Post-emergence herbicidal action, greenhouse, 320 g/ha; conditions: application rate 320 g/ha, rated visually after about 3 weeks vs untreated controls
Experimental: (§2) Seeds of monocotyledonous and dicotyledonous weeds and crop plants were placed in sandy loam in plastic or wood-fiber pots, covered with soil and cultivated in a greenhouse under controlled growth conditions. 2 to 3 weeks after sowing, the test plants were treated at the one-leaf stage. The compounds of the invention, formulated in the form of wettable powders (WP) or as emulsion concentrates (EC), were then sprayed onto the green parts of the plants as aqueous suspension or emulsion with addition of 0.5% additive at a water application rate of […] (converted). After the test plants had been kept in the greenhouse under optimum growth conditions for about 3 weeks, the activity of the preparations was rated visually in comparison to untreated controls. For example, 100% activity=the plants have died, 0% activity=like control plants. Tables A1 to A14 below show the effects of selected compounds of the general formula (I) according to Tables 1.1 to 1.150 on various harmful plants and at an application rate corresponding to 320 g/ha, which were obtained by the experimental procedure mentioned above.

Amaranthus retroflexus [8] = experiment: as above; conditions: application rate 320 g/ha, rated visually after about 3 weeks vs untreated controls
Experimental: as §2

Stellaria media [9] = experiment: as above; conditions: application rate 320 g/ha, rated visually after about 3 weeks vs untreated controls
Experimental: as §2

Viola tricolor [10] = experiment: as above; conditions: application rate 320 g/ha, rated visually after about 3 weeks vs untreated controls
Experimental: as §2

Stellaria media [11] = experiment: Herbicidal post-emergence action (Part 2), 1280 g/ha; conditions: application rate 1280 g/ha, rated visually after about 3 weeks, Table C7
Experimental: (§3) Seeds of mono- and dicotyledonous weed plants were placed in plastic pots in sandy loam soil (doubly sown with in each case one species of mono- or dicotyledonous weed plants per pot), covered with soil and cultivated in a greenhouse under controlled growth conditions. 2 to 3 weeks after sowing, the test plants were treated at the one-leaf stage. The compounds of the invention, formulated in the form of wettable powders (WP) or as emulsion concentrates (EC), were applied onto the green parts of the plants as aqueous suspension or emulsion with addition of 0.5% additive at a water application rate of 600 liters per hectare (converted). After the test plants had been kept in the greenhouse under optimum growth conditions for about 3 weeks, the activity of the preparations was rated visually in comparison to untreated controls. For example, 100% activity=the plants have died, 0% activity=like control plants. Tables C1 to C7 below show the effects of selected compounds of the general formula (I) according to Tables 1.1 to 1.150 on various harmful plants and at an application rate corresponding to 1280 g/ha, which were obtained by the experimental procedure mentioned above.

Amaranthus retroflexus [12] = experiment: as above; conditions: application rate 1280 g/ha, rated visually after about 3 weeks, Table C5
Experimental: as §3

Matricaria inodora [13] = experiment: as above; conditions: application rate 1280 g/ha, rated visually after about 3 weeks, Table C6
Experimental: as §3

Stellaria media [14] = experiment: Herbicidal pre-emergence action (Part 2), 1280 g/ha; conditions: application rate 1280 g/ha, scored visually after about 3 weeks, Table D8
Text: (§4) Seeds of mono- and dicotyledonous weed plants were placed in plastic pots in sandy loam soil (doubly sown with in each case one species of mono- or dicotyledonous weed plants per pot) and covered with soil. The compounds of the invention, formulated in the form of wettable powders (WP) or as emulsion concentrates (EC), were then applied onto the surface of the covering soil as aqueous suspension or emulsion with addition of 0.5% additive at a water application rate of 600 liters per hectare (converted). After the treatment, the pots were placed in a greenhouse and kept under good growth conditions for the test plants. After about 3 weeks, the effect of the preparations was scored visually in comparison with untreated controls as percentages. For example, 100% activity=the plants have died, 0% activity=like control plants. Tables D1 to D8 below show the effects of selected compounds of the general formula (I) according to Tables 1.1 to 1.150 on various harmful plants and at an application rate corresponding to 1280 g/ha, which were obtained by the experimental procedure mentioned above.

Poa annua = experiment: as above; conditions: application rate 1280 g/ha, scored visually after about 3 weeks, Table D3
Text: as §4

Amaranthus retroflexus [15] = experiment: as above; conditions: application rate 1280 g/ha, scored visually after about 3 weeks, Table D6
Text: as §4

Matricaria inodora [16] = experiment: as above; conditions: application rate 1280 g/ha, scored visually after about 3 weeks, Table D7
Text: as §4

Abutilon theophrasti [17] = experiment: as above; conditions: application rate 1280 g/ha, scored visually after about 3 weeks, Table D5
Text: as §4

Structure (SMILES)	Stellaria media (efficacy in %) (Stellaria media [1]) [%]	Polygonum convolvulus (efficacy in %) (Polygonum convolvulus) [%]	Avena fatua (efficacy in %) (Avena fatua) [%]	Setaria viridis (efficacy in %) (Setaria viridis [2]) [%]	Amaranthus retroflexus (efficacy in %) (Amaranthus retroflexus [3]) [%]	Matricaria inodora (efficacy in %) (Matricaria inodora [4]) [%]	Alopecurus myosuroides (efficacy in %) (Alopecurus myosuroides) [%]	Abutilon theophrasti (efficacy in %) (Abutilon theophrasti [5]) [%]	Viola tricolor (efficacy in %) (Viola tricolor [6]) [%]	Pharbitis purpurea (efficacy in %) (Pharbitis purpurea) [%]	Digitaria sanguinalis (efficacy in %) (Digitaria sanguinalis) [%]	Veronica persica (efficacy in %) (Veronica persica) [%]	Setaria viridis (efficacy in %) (Setaria viridis [7]) [%]	Amaranthus retroflexus (efficacy in %) (Amaranthus retroflexus [8]) [%]	further results
CN1CCC(O)N(c2noc(C(C)(C)C)c2F)C1=O (stereo not drawn) [I.1-206]	100	90	80	90	90	100	80	90	100	80	100	–	–	–	Hordeum murinum (efficacy in %) (Hordeum murinum): 80%
CN1CCC(O)N(c2cc(C(F)(F)F)ncn2)C1=O (stereo not drawn) [I.1-506]	100	100	80	100	90	100	90	80	100	100	100	80	100	100	–
CN1CCC(O)N(c2cc(C(F)(F)F)c(Cl)cn2)C1=O (stereo not drawn) [I.1-451]	100	90	–	90	90	100	–	–	100	–	90	–	80	100	Stellaria media (efficacy in %) (Stellaria media [9]): 100%; Viola tricolor (efficacy in %) (Viola tricolor [10]): 100%
CCC(=O)OC1CCN(C)C(=O)N1c1cc(C(C)(C)C)no1 (stereo not drawn) [I.3-290, 3-(3-tert-Butyl-1,2-oxazol-5-yl)-1-methyl-2-oxohexahydropyrimidin-4-yl Propionate]	–	–	–	–	–	–	–	–	–	–	–	–	–	–	Stellaria media (Stellaria media [11]): 100%; Amaranthus retroflexus (Amaranthus retroflexus [12]): 100%; Matricaria inodora (Matricaria inodora [13]): 90%; Stellaria media (Stellaria media [14]): 100%; Poa Annua (Poa annua): 100%; Amaranthus retroflexus (Amaranthus retroflexus [15]): 100%; Matricaria inodora (Matricaria inodora [16]): 100%; Abutilon theophrasti (Abutilon theophrasti [17]): 100%
CC(=O)OC1CCN(C)C(=O)N1C1=NOC(C)(C)C1 (stereo not drawn) [I.2-709]	100	100	–	–	–	100	90	80	100	100	90	100	–	–	–

From patent publication US20200390100A1, “SUBSTITUTED N-HETEROCYCLYL- AND N-HETEROARYL-TETRAHYDROPYRIMIDINONES AND THE SALTS THEREOF, AND THE USE OF SAME AS HERBICIDAL ACTIVE SUBSTANCES” (Bayer Aktiengesellschaft, priority 2017, published 2020)
